# Data: ChEMBL document CHEMBL3507680, “University of Dundee, Gates Library screen for HepG2 cell viability”
# Test: Human HepG2 cell viability assay in 384 well format
# Type: toxicity, cell-based
# Parameters: dose 125 nL, time 70.5 hour; concentration not given beside the values
# Conditions: HepG2 cells, read-out: Inhibition
row,Structure (SMILES),cytotoxicity at 70.5 h [%]
1,CCN1CCC(N2CCN(C)C3(CCC(=O)N(CCOC)CC3)C2)CC1 (stereo not drawn),-9.42
2,O[C@@]1(c2ccccn2)CC[C@H]2CN(Cc3ccccn3)C[C@H]21,-0.173
3,Cc1nc(CNC(=O)NCC(F)(F)F)oc1C,3.56
4,O=C(Cc1ccc2c(c1)OCO2)N[C@@H]1CCNC[C@H]1O,-3.71
5,CCn1ncc2c1CCCC2NCc1ccc2c(c1)CCO2 (stereo not drawn),-0.486
6,CO[C@H]1CCN(S(=O)(=O)c2cccs2)[C@H]1Cc1ccncc1,-6.14
7,CCN(Cc1ccncc1)C(=O)c1cc(C)c(C)c(S(N)(=O)=O)c1,-2.98
8,Cc1nc(N(C)C)nc(C)c1NC(=O)c1ccco1,-3.93
9,CC(Cn1cccn1)NC(=O)NCc1ccnc(OC2CCCC2)c1 (stereo not drawn),-8.79
10,O=C(O)c1ccnc(-c2ccnc(N3CCC4(CCO4)CC3)n2)c1,-11.6
11,Cn1ccc(N2CCCC(NC(=O)c3ccc(Cl)o3)C2=O)n1 (stereo not drawn),-10.2
12,COc1cccc(C(=O)NS(=O)(=O)c2cccc(C#N)c2)c1OC,-13.8
13,CCc1nccn1CCC(=O)N1CCOC(c2ccc(F)cc2)C1 (stereo not drawn),-6.46
14,Cc1cc(CN(C)C(=O)NC2CCN(S(C)(=O)=O)CC2)no1,-9.54
15,Cc1n[nH]c(CN2CCN(c3ncnc4scc(C)c34)CC2)c1Cl,-8.15
16,CCC(CO)N(Cc1ccsc1)Cc1ccc(-c2ccn[nH]2)s1 (stereo not drawn),-5.61
17,COCCN1C[C@@H]2CN(Cc3ccc(C)s3)CCC[C@]2(C(=O)O)C1,11.4
18,COCCC(=O)N1CCCC1c1nc(O)cc(C(C)C)n1 (stereo not drawn),-0.774
19,CSCC(CCO)NC(=O)Nc1cc(Br)ccc1C (stereo not drawn),-3.57
20,Cc1c(Cl)c(C(=O)NC(C)CN2CCOCC2)nn1C (stereo not drawn),6.43
21,NC(=O)Nc1cccc(F)c1C(=O)NC1CCCC1,-3.68
22,c1cncc(-c2noc(CNCC3CCCN3c3cccnn3)n2)c1 (stereo not drawn),-2.21
23,Cc1nnc2n1CCN(C(=O)C1CCN(Cc3ccccc3)CC1)C2,14.2

row,Structure (SMILES),cytotoxicity at 70.5 h [%]
1,Cc1ccc(C2CCCCCN2Cc2cn(C)nc2C)s1 (stereo not drawn),-19.6
2,COCc1nc(C(=O)N2CCCC2c2ccncc2)cs1 (stereo not drawn),-1.03
3,Cc1cc(C)n(CC2CN(Cc3cnc(C)s3)CCO2)n1 (stereo not drawn),16.8
4,Cc1cc(N2CCC(C(=O)O)(n3ccc(C(C)C)n3)CC2)nc(N)n1,6.37
5,Cc1ccc(CSc2ncc(Br)c(C(=O)O)n2)cc1,0.214
6,Cc1ccc(CC2CCCN2CC(=O)NCc2ccccn2)cc1 (stereo not drawn),15.4
7,C1CCN(c2nc(N3CCOCC3)nc3[nH]nnc23)CC1,-5.52
8,COCCN1CCO[C@@H]2CN(Cc3ccccc3OC)C[C@@H]2C1,-0.773
9,Cn1cnc(-c2nc(C(=O)NCC3CCCO3)c3ccccn23)c1 (stereo not drawn),-0.333
10,O=S(=O)(Nc1cnc(N2CCCC2)nc1)c1ccc(F)cc1F,-6.31
11,CC(C)c1nc(CN2CCOC(Cn3cncn3)C2)no1 (stereo not drawn),-8.23
12,Cc1nn(C)cc1C(=O)N1CCCC(c2nccn2Cc2cscn2)C1 (stereo not drawn),-7.69
13,Cc1ncsc1CCN(C)C(=O)CN1CC2(CCNCC2)OC1=O,17.2
14,CC(C)C(C(=O)N1CCCN(Cc2cnn(C)c2)CC1)n1cncn1 (stereo not drawn),-7.59
15,CCN(CC)C1CCN(c2ncnc3c2CCN(C(=O)C2CC2)C3)C1 (stereo not drawn),-2.79
16,Cc1ccc(C(=O)NC2CCN(CC(=O)N(C)c3ccccc3)CC2)o1,-4.99
17,CCOc1ccc(Br)cc1S(=O)(=O)N(CC)Cc1ccc(N(C)C)cc1,-3.07
18,Cc1nc2c(c(N3CCN(Cc4ccco4)CC3)n1)CCNCC2,-4.87
19,Fc1cnc(N2CCC3(CC2)CN(Cc2cccs2)CCO3)nc1,-6.3
20,CCC(CO)N(Cc1ccsc1)Cc1cccc(O)c1 (stereo not drawn),-0.682
21,O=C(Nc1ccccc1)N1C[C@H]2C[C@H](C(=O)N3CCOCC3)[C@@H](C1)O2,-6.84
22,CCn1cc(CN2CCCN(C(=O)c3ccccc3C)CC2)cn1,-2.18
23,CC(C)c1nc(CN2CCN(CC(O)c3ccccc3)CC2)no1 (stereo not drawn),-4.77

row,Structure (SMILES),cytotoxicity at 70.5 h [%]
1,C=C(C)Cn1ccc2cc(OC)c(F)cc2c1=O,-2.43
2,COc1cccnc1NC(=O)c1ccc(COCC(F)(F)F)cc1,-8.83
3,C=C(C)COCCNC(=O)N1CCc2c(cccc2OC)C1,7.17
4,O=C(N[C@H]1CN(C2CCOCC2)C[C@@H]1C1CC1)c1ccon1,-4.68
5,O=C(CCc1ccc(Br)cc1)NCCc1nnc[nH]1,-11.9
6,CCn1cc(CNC2CCN(c3cccc(Cl)c3)C2)cn1 (stereo not drawn),-3.2
7,O=S(=O)(NCCSc1nccn1C1CC1)c1ccccc1,-3.08
8,CN1C(=O)CCc2cc(NC(=O)C3CCCC3)ccc21,26.5
9,Cc1nc(C2CCCC2)sc1C(N)=O,12
10,Nc1nc(N)c2c(n1)OC1(CCN(C(=O)CC3CCNCC3)CC1)C2,8.24
11,CC(=O)NCCC(=O)NCc1cccnc1-n1cnc2ccccc21,-8.92
12,Cn1cccc1CN(C(=O)CC(CC(=O)O)c1cccs1)C1CC1 (stereo not drawn),-9.4
13,CN(C)CCN1C[C@@H]2CN(C(=O)C3CCOC3)C[C@@H]2C1=O (stereo partly drawn),23.4
14,Cn1nnc2c(N3CC(C(=O)NCCC4=CCCCC4)C3)ncnc21,-18.5
15,C[S+]([O-])c1cccc(NC(=O)N[C@H](CCO)c2ccccc2)c1 (stereo partly drawn),-2.3
16,COC(=O)[C@@H]1Cc2ncn(C)c2CN1S(=O)(=O)Cc1ccccc1,-2.85
17,CCc1ccccc1Nc1noc2c1CN(C(=O)CNC(C)=O)CC2,6.37
18,O=C1CCC2(CCCN(Cc3nccs3)C2)N1CC1CC1 (stereo not drawn),10.7
19,CCc1ccc2ncn(Cc3ncc[nH]3)c(=O)c2c1,-18.6
20,O=C(c1cnccn1)N1CCOC2(CCN(Cc3ccsc3)CC2)C1,4.24
21,COC(=O)CCSc1nncn1-c1ccc(OC)nc1,4.09
22,CC(Cc1cccc(F)c1)NCc1cnc(N2CCN(C)CC2)nc1 (stereo not drawn),9.92
23,CC1CCCN(c2ccccc2OCC(=O)NC2CC2)C1 (stereo not drawn),2.91

row,Structure (SMILES),cytotoxicity at 70.5 h [%]
1,CCOc1cccc(CNC(=O)C(C)(C)C#N)c1OC(F)F,-2.64
2,CN(C)CCN1CC(C(=O)N2CCC(c3cc(=O)[nH]cn3)CC2)CC1=O (stereo not drawn),3.73
3,CN(Cc1cc2n(n1)CCCNC2)Cc1n[nH]c2c1CCC2,-13.3
4,Cc1ccc(NC(C)C(=O)NCc2cccs2)cc1C (stereo not drawn),18
5,CCN(CC)S(=O)(=O)NC1CCN(c2ccc(OC)cc2)CC1,-3.82
6,CC(C)NC(=O)[C@@]12CCO[C@@H]1CCN(Cc1ccc3c(c1)OCO3)C2,1.85
7,Cc1nc(N)c2ccc(C3CCCCN3)nc2n1 (stereo not drawn),-1.97
8,CCC(=O)NC1CCN(c2cccc(CC)c2)CC1,38.9
9,CCc1nnc(SCc2nonc2C)n1C1CC1,-10.7
10,CNC(=O)[C@H]1C[C@@H]2CN(Cc3cccnc3OC)C[C@@H]2N1C(C)C,-7.89
11,CCCS(=O)(=O)NC(C)C(=O)NCc1ccc(N2CCN(C)CC2)nc1 (stereo not drawn),-2.17
12,c1cncc(CC2CN(c3cccnc3)CCO2)c1 (stereo not drawn),-6.99
13,CCOCC(O)c1nc2c([nH]1)CC(C)(C)CNC2=O (stereo not drawn),-11.8
14,CCc1c(C(=O)O)nnn1-c1cc(C)cc(C)c1,-18.5
15,O=C(c1ccc2c(c1)OCO2)N1CCN2C(=O)NC[C@H]2C1,-7.42
16,CCc1nccn1CC1CCCN1S(=O)(=O)N1CCCOCC1 (stereo not drawn),23.7
17,Cc1n[nH]c(C2CN(Cc3csc(C4CCCC4)n3)CCO2)n1 (stereo not drawn),-6.59
18,CC(C)(CNC(=O)CSc1nnnn1C1CC1)c1ccccc1F,-7.67
19,CC(C)CC(=O)N1CCN(C(=O)N(C)C)CC2(CC(=O)N(C)C2)C1 (stereo not drawn),0.114
20,Cc1ccc(CN2C[C@H]3C[C@H](C(=O)NCc4cccnc4)[C@@H](C2)O3)cc1,37.6
21,CCCC1CN(CCOc2ccccc2)C(=O)c2cccnc2O1 (stereo not drawn),4.28
22,Cc1noc(CNC(=O)N2CCN(c3nc(C)c(C)s3)CC2)n1,-3.61
23,O=C(CCC(=O)N1CCCC1c1ccsc1)N1CCOCC1 (stereo not drawn),-5.51

row,Structure (SMILES),cytotoxicity at 70.5 h [%]
1,Cc1nn(C)cc1CN(Cc1ccccn1)Cc1ccccc1Cl,4.5
2,CC1CCN(c2ccc(=O)n(CC(=O)NCCc3ccccc3)n2)CC1,5.19
3,Cc1nc(C)n(CC2CN(c3ncccn3)Cc3nccn3C2)n1 (stereo not drawn),-8.98
4,CCC(c1ccccc1)c1nn2c(CN(CC)CC)nnc2s1 (stereo not drawn),-5.77
5,CCc1c(C)nc2n(c1=O)CC(C(=O)Nc1ccccc1C)CS2 (stereo not drawn),4.11
6,O=C1CO[C@H](c2ccc(NS(=O)(=O)c3ccccc3)cc2)[C@@H](CO)N1,11.6
7,CCOCCC(=O)N1CC(=O)Nc2cc(Br)ccc21,22
8,Cc1ccc(C(=O)N2CCC3(CC2)CC(c2ccccc2)C(=O)N3)cn1 (stereo not drawn),0.473
9,Cc1cc(C(=O)N2CCC3(C2)CN(c2cccnc2)C(=O)CN3C)[nH]n1 (stereo not drawn),-10.2
10,COCCCN1CC2(CCN(C(=O)c3ncc(F)cc3F)CC2)CC1=O,-9.33
11,CCn1cc(Cl)c(C(=O)Nc2ccc3c(c2)C(C)(C)C(=O)N3C)n1,-16.6
12,O=C1CC(c2ccc(O)cc2)c2sc(C(=O)O)c(-c3ccccc3)c2N1 (stereo not drawn),-16.3
13,CC(C)n1ccnc1C1CCCN(c2ccnc3ccccc23)C1 (stereo not drawn),-0.236
14,COc1nn(C)c2c1CCCN(C(=O)c1cc[nH]n1)C2,-13
15,CCN(CC)c1ccc(-c2nc(-c3cccc(OC)c3OC)no2)cn1,-7.4
16,Cc1cc(CN2CCC3(CC2)COC(COc2ccccn2)C3)no1 (stereo not drawn),43
17,Oc1nc(N2CCCC2)nc2c1CCN(Cc1ccsc1)CC2,-8.09
18,CC(NCc1cc(O)c2cccc(F)c2n1)c1ccc(S(C)(=O)=O)cc1 (stereo not drawn),-12.6
19,O=C(NCCN1CCOCC1)NCc1ccccc1-n1cccn1,-0.678
20,CC(=O)N1CCCC(C(=O)N2CCC(=Cc3cccc(F)c3)CC2)C1 (stereo not drawn),-9.9
21,Cc1nc(CN2CCC3(CCN(Cc4cnn(C)c4)C3)C2=O)cs1 (stereo not drawn),-13.8
